# Experimental data reported in patent publication US10711011B2, “Substituted oxazolidines as anti-bacterial agents” (BUGWORKS RESEARCH, INC., priority 2016, dated 2020).
# What was measured:
# S. aureus ATCC 29213 = experiment: Minimum Inhibitory Concentration (MIC) in LB media; format: cell-based, Staphylococcus aureus; settings: for MIC: Staphylococcus aureus, ATCC29213, LB Media
# Text: (§1) The compounds of Formula I are of interest due to their potent antibacterial effects. The ability of the invention compounds disclosed herein to achieve an antibacterial effect may be evaluated with regard to their ability to inhibit the growth of bacterial species like Escherichia coli ATCC 25922, Staphylococcus aureus ATCC 29213, Klebsiella pneumoniae ATCC 13883, Acinetobacter baumannii ATCC 19606, Pseudomonas aurigenosa ATCC 27853, Enterococcus faecalis ATCC 29212 and Enterococcus faecalis ATCC 29212 using an assay based on the following Minimum Inhibitory Concentration (MIC) protocol:
# (§2) The test bacteria are grown in Luria Bertani Broth (HIMEDIA M1245), 25 grams of the powder is dissolved in 1000 ml distilled water and sterilized by autoclaving at 15 lbs pressure (121° C.) for 20 minutes. The medium sterility is checked by incubating at 37° C. for a period of 48 h.
# (§3) Bacterial cultures that are stored as glycerol stocks at −80° C. are sub cultured on LB agar plates to obtain isolated colonies. A single colony of each strain is cultured in LB broth. The cultures are incubated at 37° C., 200 rpm till they reach an optical density (OD at 600 nm) of 0.8 to 1. […] Test compounds are dissolved in dimethyl sulfoxide (DMSO) to a stock concentration of 4 mg/ml. A twofold dilution series of this DMSO stock is prepared in a 96 well V bottom microtitre plate from rows A to H. A 3 μL volume of these dilutions are transferred to a 96-well flat bottom microtitre assay plate. Controls to monitor the effects of DMSO and media sterility are included. Each well is inoculated with 150 μL of the above diluted culture. The plates are incubated at 37° C. overnight in a humidified incubator. The following morning, the plates are read using a Spectrophotometer at 600 nm wavelength. […] The antibacterial activity (MIC) determined against representative Gram positive (S. aureus, E. faecalis) and Gram negative (E. coli, P. aurigenosa, K. pneumoniae and A. baumannii) pathogen were reported Table 1.
# E. faecalis ATCC 29212 = experiment: Minimum Inhibitory Concentration (MIC) in LB media; format: cell-based, Enterococcus faecalis; settings: Enterococcus faecalis, ATCC29212
# Text: as §1, §2, §3
# E. coli ATCC 25922 = experiment: Minimum Inhibitory Concentration (MIC) in LB media; format: cell-based, Escherichia coli; settings: Escherichia coli, ATCC25922, LB Media
# Text: as §1, §2, §3
# P. aurigenosa ATCC 27853 = experiment: Minimum Inhibitory Concentration (MIC) in LB media; format: cell-based, Pseudomonas aurigenosa; settings: Pseudomonas, ATCC27853, LB Media
# Text: as §1, §2, §3
# K. pneumoniae ATCC 13883 = experiment: Minimum Inhibitory Concentration (MIC) in LB media; format: cell-based, Klebsiella pneumoniae; settings: Klebsiella pneumoniae, ATCC13883, LB Media
# Text: as §1, §2, §3
# A. baumannii ATCC 19606 = experiment: Minimum Inhibitory Concentration (MIC) in LB media; format: cell-based, Acinetobacter baumannii; settings: for MIC: Acinetobacter baumannii, ATCC19606, LB Media
# Text: as §1, §2, §3
# E. coli DNA gyrase = E. coli DNA gyrase (Escherichia coli, UniProt P0AES4+P0AES6); experiment: biochemical; settings: supercoiling assay
Structure (SMILES),MIC (S. aureus ATCC 29213) [µg/mL],MIC (E. faecalis ATCC 29212) [µg/mL],MIC (E. coli ATCC 25922) [µg/mL],MIC (P. aurigenosa ATCC 27853) [µg/mL],MIC (K. pneumoniae ATCC 13883) [µg/mL],MIC (A. baumannii ATCC 19606) [µg/mL],IC50 (E. coli DNA gyrase) [nM],Minimum Inhibitory Concentration S. aureus ATCC 29213 (S. aureus ATCC 29213; LB Media) [µg/mL],Minimum Inhibitory Concentration A. baumannii ATCC 19606 (A. baumannii ATCC 19606; LB Media) [µg/mL]
"CN1C(=O)Cc2ccc(F)c(CCNCCC3CN(c4ccc5c(n4)NC(=O)CO5)C(=O)O3)c21 (racemic) [Example 11, 6-(5-(2-((2-(6-fluoro-1-methyl-2-oxoindolin-7-yl)ethyl)amino)ethyl)-2-oxooxazolidin-3-yl)-2H-pyrido[3,2-b][1,4]oxazin-3(4H)-one]",0.03,0.13,0.06,0.5,0.125,0.03,55,–,–
"CN1C(=O)Cc2ccc(F)c(CNCCCC3CN(c4ccc5c(n4)NC(=O)CO5)C(=O)O3)c21 (single isomer, unassigned) [Example 9, 6-(5-(3-(((6-fluoro-1-methyl-2-oxoindolin-7-yl)methyl)amino)propyl)-2-oxooxazolidin-3-yl)-2H-pyrido[3,2-b][1,4]oxazin-3(4H)-one]",–,0.5,0.25,2,0.5,–,89,0.13,0.125
"Cc1ncc(N2CC(CCNCc3c(F)ccc4c3N(C)C(=O)C4)OC2=O)cc1C#N (centres unmarked) [Example 5, 5-(5-(2-(((6-Fluoro-1-methyl-2-oxoindolin-7-yl)methyl)amino)ethyl)-2-oxooxazolidin-3-yl)-2-methylnicotinonitrile]",80,80,80,> 80,> 80,40,–,–,–
"CCN1C(=O)Cc2ccc(F)c(CNCCC3CN(c4ccc5c(n4)NC(=O)CO5)C(=O)O3)c21 (centres unmarked) [Example 7, 6-(5-(2-(((1-Ethyl-6-fluoro-2-oxoindolin-7-yl)methyl)amino)ethyl)-2-oxooxazolidin-3-yl)-2H-pyrido[3,2-b][1,4]oxazin-3(4H)-one]",0.15,0.6,1.25,20,5,0.3,–,–,–
"CN1C(=O)Cc2ncc(F)c(CNCCCC3CN(c4ccc5c(n4)NC(=O)CO5)C(=O)O3)c21 (centres unmarked) [Example 17, 6-(5-(3-(((6-Fluoro-1-methyl-2-oxo-2,3-dihydro-1H-pyrrolo[3,2-b]pyridin-7-yl)methyl)amino)propyl)-2-oxooxazolidin-3-yl)-2H-pyrido[3,2-b][1,4]oxazin-3(4H)-one]",1,4,1,> 16,2,0.5,–,–,–

# The next lines start with results.
MIC (S. aureus ATCC 29213) [µg/mL],MIC (E. faecalis ATCC 29212) [µg/mL],MIC (E. coli ATCC 25922) [µg/mL],MIC (P. aurigenosa ATCC 27853) [µg/mL],MIC (K. pneumoniae ATCC 13883) [µg/mL],MIC (A. baumannii ATCC 19606) [µg/mL],Structure (SMILES),IC50 (E. coli DNA gyrase) [nM],Minimum Inhibitory Concentration S. aureus ATCC 29213 (S. aureus ATCC 29213; LB Media) [µg/mL],Minimum Inhibitory Concentration A. baumannii ATCC 19606 (A. baumannii ATCC 19606; LB Media) [µg/mL]
0.4,0.4,0.012,0.1,0.05,0.4,"O=C(O)c1cn(C2CC2)c2cc(N3CCNCC3)c(F)cc2c1=O [Ciprofloxacin, reference compound]",–,–,–
5,5,2.5,40,10,0.6,"CN1C(=O)Cc2cccc(CNCCC3CN(c4ccc5c(n4)NC(=O)CO5)C(=O)O3)c21 (centres unmarked) [Example 1, 6-(5-(2-(((1-Methyl-2-oxoindolin-7-yl)methyl)amino)ethyl)-2-oxooxazolidin-3-yl)-2H-pyrido[3,2-b][1,4]oxazin-3(4H)-one]",–,–,–
0.6,1.25,1.25,20,5,0.6,"CN1C(=O)Cc2ccc(F)c(CNCCC3CN(c4ccc5c(c4)NC(=O)CO5)C(=O)O3)c21 (centres unmarked) [Example 3, 6-(5-(2-(((6-fluoro-1-methyl-2-oxoindolin-7-yl)methyl)amino)ethyl)-2-oxooxazolidin-3-yl)-2H-benzo[b][1,4]oxazin-3(4H)-one]",–,–,–
4,4,0.5,4,1,0.5,"Cn1c(=O)oc2ccc(F)c(CCNCCC3CN(c4ccc5c(n4)NC(=O)CO5)C(=O)O3)c21 (centres unmarked) [Example 16, 6-(5-(2-((2-(5-Fluoro-3-methyl-2-oxo-2,3-dihydrobenzo[d]oxazol-4-yl)ethyl)amino)ethyl)-2-oxooxazolidin-3-yl)-2H-pyrido[3,2-b][1,4]oxazin-3(4H)-one]",–,–,–
